{"source": "paper PMC11479946", "about": "“Coupling enzymatic activity and gating in an ancient TRPM chanzyme and its molecular evolution” (Nature Structural & Molecular Biology, 2024)", "key": {"srTRPM2 [1]": {"biological_target": "T1, srTRPM2 (Salpingoeca rosetta, UniProt F2UB89, F268A)", "T1 construct": "gene PTSG_05449; full length; N-terminal TwinStrepII-His8-eGFP tag (thrombin-cleaved for enzyme assays and nanodiscs); expressed in tsA201 cells; homotetramer, GDN detergent or nanodisc", "T1 sequence (F2UB89 entry or part of it F268A)": "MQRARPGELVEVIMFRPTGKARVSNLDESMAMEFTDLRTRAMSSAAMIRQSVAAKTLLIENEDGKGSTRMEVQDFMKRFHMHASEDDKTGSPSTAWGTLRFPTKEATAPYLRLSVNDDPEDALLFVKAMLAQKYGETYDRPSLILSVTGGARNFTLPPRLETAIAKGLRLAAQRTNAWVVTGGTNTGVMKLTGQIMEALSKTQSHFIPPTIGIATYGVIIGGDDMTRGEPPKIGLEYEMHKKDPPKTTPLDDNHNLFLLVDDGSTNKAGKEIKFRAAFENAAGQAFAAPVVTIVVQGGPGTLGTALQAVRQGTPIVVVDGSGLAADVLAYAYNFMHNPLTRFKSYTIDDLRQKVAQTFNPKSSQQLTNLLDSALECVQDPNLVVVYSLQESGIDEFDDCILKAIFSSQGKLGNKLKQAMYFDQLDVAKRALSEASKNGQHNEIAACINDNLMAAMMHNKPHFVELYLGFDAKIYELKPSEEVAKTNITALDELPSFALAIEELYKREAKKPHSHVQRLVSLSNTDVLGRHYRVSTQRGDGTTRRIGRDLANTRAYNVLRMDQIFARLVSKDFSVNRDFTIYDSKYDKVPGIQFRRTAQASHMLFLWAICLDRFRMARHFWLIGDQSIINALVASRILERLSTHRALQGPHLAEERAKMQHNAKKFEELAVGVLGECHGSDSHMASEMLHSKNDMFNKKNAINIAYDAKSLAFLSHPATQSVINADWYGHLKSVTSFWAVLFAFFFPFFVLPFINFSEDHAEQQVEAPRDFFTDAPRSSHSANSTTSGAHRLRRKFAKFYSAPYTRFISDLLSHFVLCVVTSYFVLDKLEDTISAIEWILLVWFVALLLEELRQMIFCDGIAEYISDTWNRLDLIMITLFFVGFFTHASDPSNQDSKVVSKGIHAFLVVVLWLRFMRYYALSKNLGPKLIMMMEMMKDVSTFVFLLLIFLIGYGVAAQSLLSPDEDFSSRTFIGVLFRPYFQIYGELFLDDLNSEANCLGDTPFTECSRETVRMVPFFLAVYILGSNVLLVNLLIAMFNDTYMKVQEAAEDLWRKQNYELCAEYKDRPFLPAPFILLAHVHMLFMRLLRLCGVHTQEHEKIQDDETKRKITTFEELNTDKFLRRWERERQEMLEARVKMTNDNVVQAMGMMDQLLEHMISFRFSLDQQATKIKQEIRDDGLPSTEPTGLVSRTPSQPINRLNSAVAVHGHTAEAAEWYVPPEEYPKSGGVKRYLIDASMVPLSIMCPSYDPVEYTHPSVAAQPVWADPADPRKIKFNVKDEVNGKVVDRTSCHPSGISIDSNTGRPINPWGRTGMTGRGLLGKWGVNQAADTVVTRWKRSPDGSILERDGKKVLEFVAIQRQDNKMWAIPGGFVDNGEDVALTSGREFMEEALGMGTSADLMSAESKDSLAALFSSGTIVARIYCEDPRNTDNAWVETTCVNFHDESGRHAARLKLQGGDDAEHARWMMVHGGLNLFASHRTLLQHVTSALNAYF", "test": "inside-out patch clamp, tsA201 cells, +[…] mV", "format": "biochemical", "conditions": "Ca2+ with ADPR; MHR1/2 site; no activation"}, "srTRPM2 [2]": {"biological_target": "T2, srTRPM2 (Salpingoeca rosetta, UniProt F2UB89, R275A)", "T2 construct": "gene PTSG_05449; full length; N-terminal TwinStrepII-His8-eGFP tag (thrombin-cleaved for enzyme assays and nanodiscs); expressed in tsA201 cells; homotetramer, GDN detergent or nanodisc", "T2 sequence (F2UB89 entry or part of it R275A)": "as the sequence (F2UB89 entry or part of it F268A) above, with A268F, R275A counted along it", "test": "inside-out patch clamp, tsA201 cells, +[…] mV", "format": "biochemical", "conditions": "Ca2+ with ADPR; MHR1/2 site; no activation; reduced expression level"}, "srTRPM2 [3]": {"biological_target": "T3, srTRPM2 (Salpingoeca rosetta, UniProt F2UB89)", "T3 construct": "gene PTSG_05449; full length; N-terminal TwinStrepII-His8-eGFP tag (thrombin-cleaved for enzyme assays and nanodiscs); expressed in tsA201 cells; homotetramer, GDN detergent or nanodisc", "T3 sequence (F2UB89 entry or part of it)": "as the sequence (F2UB89 entry or part of it F268A) above, with A268F counted along it", "test": "HPLC fluorescence of etheno-AMP, Michaelis-Menten fit", "format": "biochemical", "conditions": "10 mM MgCl2 final, TBS-GDN, 25 °C; all buckle helix residues mutated to alanine, positions not given"}, "[4]": {"biological_target": "T4, srNUDT9-H (isolated domain) (Salpingoeca rosetta, UniProt F2UB89)", "T4 construct": "gene PTSG_05449; TwinStrepII-His8-eGFP tag, TEV-cleaved; expressed in tsA201 cells; monomeric", "T4 sequence (F2UB89 entry or part of it)": "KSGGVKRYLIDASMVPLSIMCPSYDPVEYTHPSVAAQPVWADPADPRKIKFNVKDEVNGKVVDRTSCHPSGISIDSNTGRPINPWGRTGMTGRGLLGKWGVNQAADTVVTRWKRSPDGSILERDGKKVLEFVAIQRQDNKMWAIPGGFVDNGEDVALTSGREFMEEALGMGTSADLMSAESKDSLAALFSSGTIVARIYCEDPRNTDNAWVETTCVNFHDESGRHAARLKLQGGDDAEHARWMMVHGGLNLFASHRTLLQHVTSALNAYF", "test": "HPLC fluorescence of etheno-AMP, Michaelis-Menten fit", "format": "biochemical", "conditions": "10 mM MgCl2 final, TBS-GDN, 25 °C"}, "srTRPM2 [5]": {"biological_target": "T3, srTRPM2", "test": "HPLC fluorescence of etheno-AMP, Michaelis-Menten fit", "format": "biochemical", "conditions": "10 mM MgCl2 final, TBS-GDN, 25 °C; buckle helix truncated, borders not given"}, "[6]": {"biological_target": "Salpingoeca rosetta TRPM2 chanzyme, wild type, full length (Salpingoeca rosetta)", "test": "cryo-EM structure; purified protein in GDN or nanodisc with CaCl2–ADPR (1:1 mM), MgCl2–AMP–R5P (10:1:1 mM) or MgCl2–ADPR (10:1 mM; 5 s, 10 s or 4 min); fully ligand-bound states; NUDT9-H layer tetramerised via the buckle helix"}, "[7]": {"biological_target": "Salpingoeca rosetta TRPM2 chanzyme, wild type, full length (Salpingoeca rosetta)", "test": "cryo-EM structure; purified protein with EDTA (1 mM), CaCl2 (1 mM), MgCl2 (10 mM) or EDTA–ADPR (1:1 mM), 30 min; apo or partially ligand-bound states; C4 symmetry; NUDT9-H domains flexible, not tetramerised"}, "[8]": {"biological_target": "srTRPM2–E1114A (Salpingoeca rosetta)", "test": "cryo-EM structure; purified protein in GDN or nanodisc with CaCl2–ADPR (1:1 mM), MgCl2–AMP–R5P (10:1:1 mM) or MgCl2–ADPR (10:1 mM; 5 s, 10 s or 4 min); fully ligand-bound states; NUDT9-H layer tetramerised via the buckle helix"}, "[9]": {"biological_target": "srTRPM2–ΔNUDT9-H (Salpingoeca rosetta) (UniProt F2UB89)", "test": "cryo-EM structure; purified protein in GDN or nanodisc with CaCl2–ADPR (1:1 mM), MgCl2–AMP–R5P (10:1:1 mM) or MgCl2–ADPR (10:1 mM; 5 s, 10 s or 4 min); fully ligand-bound states; NUDT9-H layer tetramerised via the buckle helix"}, "[10]": {"biological_target": "srTRPM2–ΔNUDT9-H (Salpingoeca rosetta) (UniProt F2UB89)", "test": "cryo-EM structure; purified protein with EDTA (1 mM), CaCl2 (1 mM), MgCl2 (10 mM) or EDTA–ADPR (1:1 mM), 30 min; apo or partially ligand-bound states; C4 symmetry; NUDT9-H domains flexible, not tetramerised"}}, "data": [{"molecule": "Nc1ncnc2c1ncn2[C@@H]1O[C@H](COP(=O)(O)OP(=O)(O)OC[C@H]2OC(O)[C@H](O)[C@@H]2O)[C@@H](O)[C@H]1O", "note": "(stereo partly shown) [ADPR]", "values": [{"measurement": "inside-out patch clamp, tsA201 cells, +60 mV", "setting": "srTRPM2 [1]", "result": "Replacement of either of these residues with alanine rendered srTRPM2 insensitive to ADPR"}, {"measurement": "inside-out patch clamp, tsA201 cells, +60 mV", "setting": "srTRPM2 [2]", "result": "Replacement of either of these residues with alanine rendered srTRPM2 insensitive to ADPR"}, {"measurement": "KM", "setting": "srTRPM2 [3]", "result": "srTRPM2 with the buckle helix residues replaced by alanine (BH2A)"}, {"measurement": "KM", "setting": "[4]", "result": "representing the rate of ADPR hydrolysis by the isolated srNUDT9-H domain"}, {"measurement": "KM", "setting": "srTRPM2 [5]", "result": "srTRPM2 lacking the buckle helix (ΔBH)"}]}, {"molecule": "Salpingoeca rosetta TRPM2 chanzyme, wild type, full length (natural protein)", "values": [{"measurement": "stoichiometry N", "setting": "[6]", "result": 4}, {"measurement": "stoichiometry N", "setting": "[7]", "result": 4}]}, {"molecule": "srTRPM2–E1114A (natural protein)", "values": [{"measurement": "stoichiometry N", "setting": "[8]", "result": 4}]}, {"molecule": "srTRPM2–ΔNUDT9-H (from UniProt F2UB89 1-1214) (domain or fragment)", "values": [{"measurement": "stoichiometry N", "setting": "[9]", "result": 4}, {"measurement": "stoichiometry N", "setting": "[10]", "result": 4}]}]}
